Values joined by “and” are separate entries in the source; they are usually repeats but may differ in a detail not shown here. Equal values may be shown once.
Columns and labels:
[1] = system: RIF (Radiation induced Fibrosarcoma) line; assay: In vitro phototoxicity on RIF cells (MTT); format: cell-based, mouse
Method: (i) Cell lines. The murine leukemia cell line (L1210) was maintained in suspension culture using Fischer's medium supplemented with 10% horse serum, 1 mM glutamine, 1 mM mercaptoethanol and gentamicin. The RIF (Radiation induced Fibrosarcoma) tumor was maintained as specified by Twentyman et al. (1980, “A new mouse tumor model system (RIF-1) for comparison of end-point studies”, J. Natl. Cancer Inst., 64, 595-604). Cultures were grown in Weymouth's medium containing 10% fetal calf serum and gentamycin.
(ii) In vitro phototoxicity. For studies on phototoxicity involving L1210 and RIF cells, light was provided by a 600 watt quartz-halogen source filtered with 10 cm of water and a 850 nm cut-off filter to remove IR. The bandwidth was further confined to 660±5 nm by an interference filter (Oriel). Cells in suspension (L1210) or adhering to 24 mm diameter cover slips were incubated in growth medium (with 20 mM HEPES pH 7 replacing NaHCO3 for added buffering capacity) for 15 min in the presence of specified levels of sensitizers. […] For some studies, the cells were then labeled with fluorescent probes and sites of photodamage were assessed. […]
(iii) Cell Viability. Cell survival was assessed by the MTT reaction carried out 3 days after plating of 1,000-50,000 cells in 96 well plates. […] Absorbance at x nm was determined with a BioRad Plate reader. […]

[2] = system: HDL, LDL, Albumin fractions of human serum; assay: Plasma lipoprotein binding (density-gradient centrifugation); format: in vitro ADME; conditions: 3 μM, 30 min at 37° C.
Method: (iv) Lipoprotein binding: Binding of Pd-BPheid to protein and lipoprotein compound of control human plasma was determined. Incubation of 250 μl plasma sample with 3 μM of the compound for 30 min at 37° C. Lipoprotein and protein components were then separated by density-gradient centrifugator. The gradients were fractionated, fractions diluted into 3 ml of 10 mM Triton X-100 detergent or of fluorescence at 750-800 nm determined upon excitation at 400 nm.

RIF-1 fibrosarcoma = assay: In vivo PDT of RIF-1 fibrosarcoma; design: key to Summary (cures), symbol: −: no response
Method: Photodynamic therapy parameters: Mice with tumors measuring 5-7 mm in diameter were entered into PDT experiments. Three Pd-BPheid drug doses (1, 5 and 10 mg/kg) and two light doses (100 and 300 Joules/sq.cm) were evaluated. A formulation of Pd-BPheid dissolved in Cremophor was administered by i.v. tail injection. PDT light exposure was started either 15 minutes, 1 hour or 4 hours following injection. […] A titanium sapphire laser tuned to 757 nm was used as the light source for PDT. Laser generated light was coupled into quartz fibers for delivery of light to tumors. A light power density of 75 mW/sq.cm was used. Tumor size was measured 3 days per week following PDT treatments and the percentage of tumor cures (defined as no tumor recurrence for 40 days post treatment) was determined.
In vivo PDT Response: Tables 4 and 5 hereinafter provide summaries of the PDT treatment results for C3H mice transplanted with either the BA mammary carcinoma or the RIF-1 fibrosarcoma. Each table indicates the following parameters: 1) intravenous drug dose expressed in mg/kg; 2) laser treatment parameters, including the total light dose (J/cm^2), the wavelength (757 nm), the light dose rate (mW/cm^2), and the time interval ([…], 4) toxicity (four mice died shortly after treatment), 5) tumor regrowth (consisting of the number of days between PDT treatment and tumor recurrence) and 6) the number of mice (and percentage) with Pd-BPheid PDT induced tumor cures.

M2R mouse melanoma cells = assay: Phototoxicity on M2R cells (Example 10, [3H]-thymidine incorporation); format: cell-based; conditions: pigments dissolved directly in culture medium containing 10% serum
Method: The diluted pigments were added and the cells were incubated in the dark for four hours at 37° C. Prior to illumination, the cells were washed once and replaced with fresh culture medium. The plates were then illuminated from the bottom for 10 minutes at room temperature and placed in the culture incubator at 37° C. in the dark. […] The following control systems were used: Dark control—untreated cells kept in the dark; Light control—cells not treated with sensitizer that were illuminated; Dark toxicity—cells treated with pigment but kept in the dark.

[3] = system: A431 human epithelial carcinoid cells
Method: (ii) Light source: Halogen lamp (Osram, Germany, 100 W), with 4.5 cm water filter and cut off filter>650 nm. The cells were illuminated for 10 minutes, 15 mW/cm^2, a total energy fluency of 9 J/cm^2. For illumination, the culture plates were placed on a glass table to provide the light from the bottom.
(iii) Phototoxicity study: A431 cells (5×10^4 cells) were seeded in 3 cm dishes in duplicates and cultured to 75% confluency in Dulbecco's modified Eagle's medium (DMEM)+F12 (1:1), buffered with HEPES (25 mM, pH 7.4), fetal calf serum (FCS) with penicillin (0.06 mg/ml) and streptomycin (0.1 mg/ml). […] After a 4-hour period the cells were washed with culture medium and the cells were illuminated with the light source above. Phase contrast microscopic examination was performed at different time points after illumination (0, 0.5, 4 and 24 hours post-PDT) using Zeiss Axiovert-35 light microscope (magnification X320) equipped with a Contax 35 mm SLR camera. In the second dish of every duplicate, cell viability was assessed 24 hours post-PDT using neutral red viability assay (Zhang S Z., 1990, Cell Biol Toxicol 6(2): 219-234).

[4] = 1 mg/Kg i.v., 300 J/cm^2, 757 nm, 75 mW/cm^2, 15 min. interval
[5] = 5 mg/Kg i.v., 300 J/cm^2, 757 nm, 75 mW/cm^2, 1 HR. interval
[6] = 5 mg/Kg i.v., 300 J/cm^2, 757 nm, 75 mW/cm^2, 15 min. interval
[7] = 10 mg/Kg i.v., 100 J/cm^2, 757 nm, 75 mW/cm^2, 1 HR interval
[8] = 10 mg/Kg i.v., 100 J/cm^2, 757 nm, 75 mW/cm^2, 15 min. interval
[9] = 10 mg/Kg i.v., 300 J/cm^2, 757 nm, 75 mW/cm^2, 1 HR interval
[10] = 10 mg/Kg i.v., 300 J/cm^2, 757 nm, 75 mW/cm^2, 4 HR interval
[11] = 10 mg/Kg i.v., 300 J/cm^2, 757 nm, 75 mW/cm^2, 15 min. interval

CC[C@H]1C2=NC(=Cc3c(C(C)=O)c(C)c4[n]3[Pd][n]3c(c(C)c5c3=C(C3=NC(=C4)[C@@H](C)[C@@H]3CCC(=O)O)[C@@H](C(=O)OC)C5=O)=C2)[C@@H]1C [Pd-BPheid, Pd-bacteriopheophorbide a]
light dose required for a similar degree (50%) of cell killing [1]: 215 mJ/cm^2 | plasma lipoprotein binding, rank order of fractions [2]: HDL>LDL>>>Albumin | Number of Animals with Primary Tumor Regrowth (Days to Recurrence) (RIF-1 fibrosarcoma; [4]): 2(1 day) | Summary (cures), symbol (RIF-1 fibrosarcoma; [4]): − | Toxicity (Treatment associated death) (RIF-1 fibrosarcoma; [4]): 0 | Number of Animals with Primary Tumor Regrowth (Days to Recurrence) (RIF-1 fibrosarcoma; [5]): 1(4 days) and 1(2 days) and 1(7 days) | Toxicity (Treatment associated death) (RIF-1 fibrosarcoma; [5]): 0 | Number of Animals with Primary Tumor Regrowth (Days to Recurrence) (RIF-1 fibrosarcoma; [6]): 1(5 days) and 1(12 days) | Summary (cures) % (RIF-1 fibrosarcoma; [6]): 33.33% | Summary (cures), number of animals (days) (RIF-1 fibrosarcoma; [6]): 1(40 days) | Toxicity (Treatment associated death) (RIF-1 fibrosarcoma; [6]): 0 | Number of Animals with Primary Tumor Regrowth (Days to Recurrence) (RIF-1 fibrosarcoma; [7]): 2(3 days) and 1(6 days) | Toxicity (Treatment associated death) (RIF-1 fibrosarcoma; [7]): 0 | Number of Animals with Primary Tumor Regrowth (Days to Recurrence) (RIF-1 fibrosarcoma; [8]): 2(12 days) and 1(7 days) | Toxicity (Treatment associated death) (RIF-1 fibrosarcoma; [8]): 0 | Number of Animals with Primary Tumor Regrowth (Days to Recurrence) (RIF-1 fibrosarcoma; [9]): 1(20 days) | Summary (cures) % (RIF-1 fibrosarcoma; [9]): 25.00% | Summary (cures), number of animals (days) (RIF-1 fibrosarcoma; [9]): 1(40 days) | Toxicity (Treatment associated death) (RIF-1 fibrosarcoma; [9]): 2 | Toxicity (Treatment associated death), number of animals (day) (RIF-1 fibrosarcoma; [9]): 2(1 day) | Summary (cures), symbol (RIF-1 fibrosarcoma; [10]): − | Toxicity (Treatment associated death) (RIF-1 fibrosarcoma; [10]): 0 | Summary (cures) % (RIF-1 fibrosarcoma; [11]): 33.33% | Toxicity (Treatment associated death) (RIF-1 fibrosarcoma; [11]): 2 | Toxicity (Treatment associated death), number of animals (day) (RIF-1 fibrosarcoma; [11]): 2(1 day) | effectiveness of PDT (RIF-1 fibrosarcoma; 4-hour interval between drug administration and light treatment): not effective | effectiveness of PDT (RIF-1 fibrosarcoma; light treatments initiated within 1 hour of drug administration): effective | phototoxic activity (M2R mouse melanoma cells): fully active | LD90 concentration ([3]; 4-hour incubation, illuminated 10 minutes, 15 mW/cm^2, 9 J/cm^2): 0.1 µM | cells that lost most of their inner volume ([3]; after 4 hours post PDT): 90% | time of alteration in the cells membrane structure ([3]; post PDT): 30 min | morphological phenotype post PDT ([3]; sensitizer at LD90 concentration, phase contrast microscopy): fibrous phenotype

Reference: US6569846B1, “Palladium-substituted bacteriochlorophyll derivatives and use thereof” (Yeda Research and Development Co. Ltd., priority 1998, dated 2003)
